Measured values: patent publication US6534496B1, “Thermogenic composition and benzazepine thermogenics” (Takeda Chemical Industries, Inc., priority 1997, dated 2003)
Structures can show the parent of a compound that is named as a salt.

Row | SMILES | melting point
1 | O=C(CCC1CCN(Cc2cccc(-c3ccccc3)c2)CC1)c1ccc2c(c1)CN(Cc1ccc(F)cc1)CCO2 (as salt: hydrochloride) [Example 99, 1-[4-[(4-Fluorophenyl)methyl]-2,3,4,5-tetrahydro-1,4-benzoxazepin-7-yl]-3-[1-[(3-phenylphenyl)methyl]-4-piperidinyl]-1-propanone Ddihydrochloride] | 187 to 189 °C
2 | CCOC(=O)COc1cccc(CN2CCC(CCC(=O)c3ccc4c(c3)CN(Cc3ccc(F)cc3)CCO4)CC2)c1 (as salt: hydrochloride) [Example 103, Ethyl 2-[3-[[4-[3-[4-[(4-fluorophenyl)methyl]-2,3,4,5-tetrahydro-1,4-benzoxazepin-7-yl]-3-oxopropyl]-1-piperidinyl]methyl]phenoxy]ethanoate Dihydrochloride] | 200 to 203 °C
3 | CC(C)(C)c1ccc(CN2CCC(CCC(=O)c3ccc4c(c3)CN(Cc3ccc(F)cc3)CCO4)CC2)cc1 (as salt: hydrochloride) [Example 108, 1-[4-[(4-Fluorophenyl)methyl]-2,3,4,5-tetrahydro-4-benzoxazepin-7-yl]-3-[1-[[4-(tert-butyl)phenyl]methyl]-4-piperidinyl]-1-propanone Dihydrochloride] | 240 to 243 °C
4 | Cc1ccccc1CN1CCc2ccc(C(=O)CCCC3CCN(Cc4ccccc4C)CC3)cc2CC1 (as salt: hydrochloride) [Example 127, 4-[1-[(2-Methylphenyl)methyl]-4-piperidinyl]-1-[3-[(2-methylphenyl)methyl]-2,3,4,5-tetrahydro-1H-3-benzazepin-7-yl]-1-butanone Dihydrochloride] | 183 to 186 °C
5 | Cc1ccccc1CN1CCc2ccc(C(=O)CCCC3CCN(Cc4ccccc4)CC3)cc2CC1 (as salt: hydrochloride) [Example 129, 1-[3-[(2-Methylphenyl)methyl]-2,3,4,5-tetrahydro-1H-3-benzazepin-7-yl]-4-[1-(phenylmethyl)-4-piperidinyl]-1-butanone Dihydrochloride] | 191 to 194 °C
6 | Cc1ccccc1CN1CCc2ccc(C(=O)CCCC3CCN(Cc4cccc(Cl)c4)CC3)cc2CC1 (as salt: hydrochloride) [Example 130] | 180 to 183 °C
7 | COC(=O)c1cccc(CN2CCC(CCCC(=O)c3ccc4c(c3)CCN(Cc3ccccc3)CC4)CC2)c1 (as salt: hydrochloride) [Example 152, Methyl 3-[[4-[4-[3-(phenylmethyl)-2,3,4,5-tetrahydro,-1H-3-benzazepin-7-yl]-4-oxobutyl]-1-piperidinyl]methyl]benzoate Dihydrochloride] | 194 to 200 °C
8 | CCOC(=O)C(C)(C)c1cccc(CN2CCC(CCCC(=O)c3ccc4c(c3)CCN(Cc3ccccc3)CC4)CC2)c1 (as salt: hydrochloride) [Example 153, Ethyl 2-methyl-2-[3-[[4-[4-[3-(phenylmethyl)-2,3,4,5-tetrahydro-1H-3-benzazepin-7-yl]-4-oxobutyl]-1-piperidinyl]methyl]phenyl]propionate Dihydrochloride] | 146 to 148 °C
9 | O=C(CCCC1CCN(Cc2cccc([N+](=O)[O-])c2)CC1)c1ccc2c(c1)CCN(Cc1ccccc1)CC2 (as salt: hydrochloride) [Example 154, 4-[1-[(3-Nitrophenyl)methyl]-4-piperidinyl-1-(3-(phenylmethyl)-2,3,4,5-tetrahydro-1H-3-benzazepin-7-yl]-1-butanone Dihydrochloride] | 239 to 244 °C (dec.)
10 | COc1cccc(CN2CCC(CCCC(=O)c3ccc4c(c3)CCN(Cc3ccccc3)CC4)CC2)c1 (as salt: hydrochloride) [Example 156, 4-[1-[(3-Methoxyphenyl)methyl]-4-piperidinyl]-1-[3-(phenylmethyl)-2,3,4,5-tetrahydro-1H-3-benzazepin-7-yl]-1-butanone Dihydrochloride] | 215 to 218 °C (dec.)
11 | O=C(CCCC1CCN(Cc2ccccc2Cl)CC1)c1ccc2c(c1)CCN(Cc1ccccc1)CC2 (as salt: hydrochloride) [Example 178, 4-[1-[(2-Chlorophenyl)methyl]-4-piperidinyl]-1-[3-(phenylmethyl)-2,3,4,5-tetrahydro-1H-3-benzazepin-7-yl]-1-butanone Dihydrochloride] | 226 to 229 °C (dec.)
12 | CC(=O)Nc1cccc(CN2CCC(CCCC(=O)c3ccc4c(c3)CCN(Cc3ccccc3)CC4)CC2)c1 (as salt: hydrochloride) [Example 179, N-[3-[[4-[4-[3-(Phenylmethyl)-2,3,4,5-tetrahydro-1H-3-benzazepin-7-yl]-4-oxobutyl]-1-piperidinyl]methyl]phenyl]acetamide Dihydrochloride] | 179 to 187 °C
13 | Cc1ccc(CN2CCc3ccc(C(=O)CCCC4CCN(Cc5ccc(F)cc5)CC4)cc3CC2)cc1 (as salt: hydrochloride) [Example 192, 4-[1-[(4-Fluorophenyl)methyl]-4-piperidinyl]-1-[3-[(4-methylphenyl)methyl]-2,3,4,5-tetrahydro-1H-3-benzazepin-7-yl]-1-butanone Dihydrochloride] | 225 to 228 °C
14 | Cc1ccc(CN2CCC(CCCC(=O)c3ccc4c(c3)CCN(Cc3ccccc3[N+](=O)[O-])CC4)CC2)cc1 (as salt: hydrochloride) [Example 198, 4-[1-[(4-Methylphenyl)methyl]-4-piperidinyl]-1-[3-[(2-nitrophenyl)methyl]-2,3,4,5-tetrahydro-1H-3-benzazepin-7-yl]-1-butanone Dihydrochloride] | 164 to 167 °C
15 | O=C(O)c1cccc(CN2CCC(CCCC(=O)c3ccc4c(c3)CCN(Cc3ccccc3)CC4)CC2)c1 (as salt: salt) [Example 158, 3-[[4-[4-[3-(Phenylmethyl)-2,3,4,5-tetrahydro-1H-benzazepin-7-yl]-4-oxobutyl)-1-piperidinyl]methyl]benzoic acid triethylamine Salt] | 150 to 158 °C
16 | O=C(CCC1CCNCC1)c1ccc2c(c1)CCN(Cc1ccccc1)CC2 [Example 24, 1-[3-(phenylmethyl)-2,3,4,5-tetrahydro-1H-3-benzazepin-7-yl]-3-(4-piperidinyl)-1-propanone] | 134 to 137 °C
17 | CC(=O)N1CCC(CCC(=O)c2ccc3c(c2)CCN3c2ccncc2)CC1 [Example 61, 3-(1-Acetyl-4-piperidinyl)-1-[1-(4-pyridyl)-2,3-dihydroindol-5-yl]-1-propanone] | 157 to 158 °C

Second part, the compound after the results:

Row | melting point | SMILES
18 | 195 to 198 °C | Cc1ccc(CN2CCC(CCCC(=O)c3ccc4c(c3)CCN(Cc3cccc(Cl)c3)CC4)CC2)cc1 (as salt: hydrochloride) [Example 202, 1-[3-[(3-Chlorophenyl)methyl]-2,3,4,5-tetprahydro-1H-3-benzazepin-7-yl]-4-[1-[(4-methylphenyl)methyl]-4-piperidinyl]-1-butanone Dihydrochloride]
19 | 208 to 210 °C | O=C(CCCCC1CCN(Cc2ccccc2)CC1)c1ccc2c(c1)CCN(Cc1ccccc1)CC2 (as salt: hydrochloride) [Example 209, 5-[1-(Phenylmethyl)-4-piperidinyl]-1-[3-(phenylmethyl)-2,3,4,5-tetrahydro-1H-3-benzazepin-7-yl]-1-pentanone Dihydrochloride]
20 | 213 to 216 °C (dec.) | Cc1ccccc1CN1CCC(CCCC(=O)c2ccc3c(c2)CCNCC3)CC1 (as salt: hydrochloride) [Example 236, 4-[1-[(2-Methylphenyl)methyl]-4-piperidinyl]-1-(2,3,4,5-tetrahydro-1H-3-benzazepin-7-yl)-1-butanone Dihydrochloride]
21 | 211 to 213 °C | CCN(CC)CCN1CCc2ccc(C(=O)CCCC3CCN(Cc4ccccc4C)CC3)cc2CC1 (as salt: hydrochloride) [Example 244, 1-[3-(2-Diethyaminoethyl)-2,3,4,5-tetrahydro-1H-3-benzazepin-7-yl]-4-[1-[(2-methylphenyl)methyl]-4-piperidinyl]-1-butanone Trihydrochloride]
22 | 201 to 220 °C (dec.) | Cc1ccccc1CN1CCc2ccc(C(=O)CCCC3CCN(Cc4ccccc4C(N)=O)CC3)cc2CC1 (as salt: hydrochloride) [Example 254, 2-[[4-[4-[3-[(2-Methylphenyl)methyl]-2,3,4,5-tetrahydro-1H-3-benzazepin-7-yl]-4-oxobutyl]-1-piperidinyl]methyl]benzamide Dihydrochloride]
23 | 192 to 203 °C (dec.) | Cc1ccccc1CN1CCc2ccc(C(=O)CCCC3CCNCC3)cc2CC1 (as salt: hydrochloride) [Example 255, 1-[3-(2-Methylphenyl)methyl]-2,3,4,5-tetrahydro-1H-3-benzazepin-7-yl]-4-(4-piperidinyl)-1-butanone Dihydrochloride]
24 | 186 to 193 °C (dec.) | Cc1ccccc1CN1CCc2ccc(C(=O)CCCC3CCN(Cc4ccccc4C(=O)N4CCN(C)CC4)CC3)cc2CC1 (as salt: hydrochloride) [Example 313, 4-[1-[[2-[(4-methyl-1-pipiperazinyl)carbonyl]phenyl]methyl]-4-piperidinyl]-1-[3[(2-methylphenyl)methyl]-2,3,4,5-tetrahydro-1H-3-benzazepin-7-yl]-1-butanone Trihydrochloride]
25 | 168 to 172 °C | Cc1ccccc1CN1CCc2ccc(C(=O)CCCC3CCN(Cc4ccccc4C(=O)N4CCOCC4)CC3)cc2CC1 (as salt: hydrochloride) [Example 314, 1-[3-[(2-Methylphenyl)methyl]-2,3,4,5-tetrahydro-1H-3-benzazepin-7-yl]-4-[1-[[2-(morpholinocarbonyl)phenyl]methyl]-4-piperidinyl]-1-butanone Dihydrochloride]
26 | 138 to 144 °C | CC(=O)Nc1ccccc1CN1CCc2ccc(C(=O)CCCC3CCN(Cc4ccccc4Cl)CC3)cc2CC1 (as salt: hydrochloride) [Example 315, N-[2-[[7-[4-[1-[(2-chlorophenyl)methyl]-4-piperidinyl]butanoyl]-2,3,4,5-tetrahydro-1H-3-benzazepin-3-yl]methyl]phenyl]acetamide Dihydrochloride]
27 | 155 to 164 °C (dec.) | Nc1ccccc1CN1CCc2ccc(C(=O)CCCC3CCN(Cc4ccccc4Cl)CC3)cc2CC1 (as salt: hydrochloride) [Example 316, 1-[3-[(2-Aminophenyl)methyl]-2,3,4,5-tetrahydro-1H-3-benzazepin-7-yl]-4-[1-[(2-chlorophenyl)methyl]-4-piperidinyl]-1-butanone Trihydrochloride]
